Assay results taken from patent US11613536B2, “Heterocyclic compounds as immunomodulators” (Incyte Corporation, priority 2016, dated 2023).

Target: PD-1/PD-L1 protein/protein interaction (Homo sapiens (Human), UniProt Q9NZQ7)
Test: PD-1/PD-L1 Homogeneous Time-Resolved Fluorescence (HTRF) Binding Assay
Settings: recombinant human PD-L1 (19-238) His-tag 10 nM, human PD-1 (25-167) Fc tag 3 nM, 25° C., PBS pH 7.4
Protocol: The assays were conducted in a standard black 384-well polystyrene plate with a final volume of 20 μL. Inhibitors were first serially diluted in DMSO and then added to the plate wells before the addition of other reaction components. The final concentration of DMSO in the assay was 1%. The assays were carried out at 25° C. in the PBS buffer (pH 7.4) with 0.05% Tween-20 and 0.1% BSA. Recombinant human PD-L1 protein (19-238) with a His-tag at the C-terminus was purchased from AcroBiosystems (PD1-H5229). Recombinant human PD-1 protein (25-167) with Fc tag at the C-terminus was also purchased from AcroBiosystems (PD1-H5257). PD-L1 and PD-1 proteins were diluted in the assay buffer and 10 μL was added to the plate well. Plates were centrifuged and proteins were preincubated with inhibitors for 40 minutes. The incubation was followed by the addition of 10 μL of HTRF detection buffer supplemented with Europium cryptate-labeled anti-human IgG (PerkinElmer-AD0212) specific for Fc and anti-His antibody conjugated to SureLight®-Allophycocyanin (APC, PerkinElmer-AD0059H). After centrifugation, the plate was incubated at 25° C. for 60 min. before reading on a PHERAstar FS plate reader (665 nm/620 nm ratio). Final concentrations in the assay were—3 nM PD1, 10 nM PD-L1, 1 nM europium anti-human IgG and 20 nM anti-His-Allophycocyanin. IC50 determination was performed by fitting the curve of percent control activity versus the log of the inhibitor concentration using the GraphPad Prism 5.0 software.

Chain of PD-1/PD-L1 protein/protein interaction (Q9NZQ7 19-238): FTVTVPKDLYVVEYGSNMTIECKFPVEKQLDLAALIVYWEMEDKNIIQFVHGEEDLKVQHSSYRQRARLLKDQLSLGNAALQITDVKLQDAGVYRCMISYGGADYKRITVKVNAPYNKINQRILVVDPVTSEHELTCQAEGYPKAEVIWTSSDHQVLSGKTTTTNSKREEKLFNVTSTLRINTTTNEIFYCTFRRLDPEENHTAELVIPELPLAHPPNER

SMILES	IC50
Cc1c(NC(=O)c2cc(CN3CCCC[C@H]3C(=O)O)n(C)n2)cccc1-c1ccccc1 [Example 6, (2S)-1-[(1-methyl-3-{[(2-methylbiphenyl-3-yl)amino]carbonyl}-1H-pyrazol-5-yl)methyl]piperidine-2-carboxylic acid]	≤ 100 nM
Cn1c(CNCCO)cnc1C(=O)Nc1cccc(-c2cccc3c2cnn3C)c1C#N [Example 16, N-[2-cyano-3-(1-methyl-1H-indazol-4-yl)phenyl]-5-{[(2-hydroxyethyl)amino]methyl}-1-methyl-1H-imidazole-2-carboxamide]	100 to 500 nM
Cc1c(COc2cc(OCc3cncc(C#N)c3)c(CN3CCCC[C@H]3C(=O)O)cc2Cl)cccc1-c1cccc(NC(=O)c2ncc(CNCCO)s2)c1C [Example 17, (S)-1-(5-chloro-2-((5-cyanopyridin-3-yl)methoxy)-4-((3′-(5-(((2-hydroxyethyl)amino)methyl)thiazole-2-carboxamido)-2,2′-dimethyl-[1,1′-biphenyl]-3-yl)methoxy)benzyl)piperidine-2-carboxylic acid]	≤ 100 nM
Cn1nc(C(=O)Nc2cccc(-c3ccc4c(c3)OCCO4)c2C#N)cc1CNCCO [Example 10, N-[2-cyano-3-(2,3-dihydro-1,4-benzodioxin-6-yl)phenyl]-5-{[1(2-hydroxyethyl)amino]methyl}-1-methyl-1H-pyrazole-3-carboxamide]	≤ 100 nM
COc1cccc(-c2cccc(NC(=O)c3cc(CNCCO)n(C)n3)c2C#N)c1F [Example 12, N-(2-cyano-2′-fluoro-3′-methoxybiphenyl-3-yl)-5-{[(2-hydroxyethyl)amino]methyl}-1-methyl-1H-pyrazole-3-carboxamide]	≤ 100 nM
Cc1c(COc2cc(OCc3cncc(C#N)c3)c(CN3CCCC[C@H]3C(=O)O)cc2Cl)cccc1-c1cccc(NC(=O)c2ncc(CN3CC[C@@H](O)C3)s2)c1C [Example 18, (S)-1-(5-chloro-2-((5-cyanopyridin-3-yl)methoxy)-4-((3′-(5-(((R)-3-hydroxypyrrolidin-1-yl)methyl)thiazole-2-carboxamido)-2,2′-dimethyl-[1,1′-biphenyl]-3-yl)methoxy)benzyl)piperidine-2-carboxylic acid]	≤ 100 nM
Cn1nc(C(=O)Nc2cccc(-c3cccc4c3cnn4C)c2C#N)cc1CNCCO [Example 13, N-[2-cyano-3-(1-methyl-1H-indazol-4-yl)phenyl]-5-{[(2-hydroxyethyl)amino]methyl}-1-methyl-1H-pyrazole-3-carboxamide]	≤ 100 nM
Cn1c(CNCCO)cnc1C(=O)Nc1cccc(-c2ccc3c(c2)OCCO3)c1C#N [Example 14, N-[2-cyano-3-(2,3-dihydro-1,4-benzodioxin-6-yl)phenyl]-5-{[1(2-hydroxyethyl)amino]methyl}-1-methyl-1H-imidazole-2-carboxamide]	≤ 100 nM
Cc1c(NC(=O)c2ncc(CN3CCCC[C@H]3C(=O)O)n2C)cccc1-c1ccccc1 [Example 4, (2S)-1-[(1-methyl-2-{[(2-methylbiphenyl-3-yl)amino]carbonyl}-1H-imidazol-5-yl)methyl]piperidine-2-carboxylic acid]	100 to 500 nM
COc1cccc(-c2cccc(NC(=O)c3ncc(CNCCO)n3C)c2C#N)c1F [Example 15, N-(2-cyano-2′-fluoro-3′-methoxybiphenyl-3-yl)-5-{[(2-hydroxyethyl)amino]methyl}-1-methyl-1H-imidazole-2-carboxamide]	≤ 100 nM
Cc1c(NC(=O)c2cc(CN3CC[C@@H](O)C3)n(C)n2)cccc1-c1cccc(NC(=O)c2ncc(CN3CC[C@@H](O)C3)s2)c1C [Example 19, 5-(((R)-3-hydroxypyrrolidin-1-yl)methyl)-N-(3′-(5-(((R)-3-hydroxypyrrolidin-1-yl)methyl)-1-methyl-1H-pyrazole-3-carboxamido)-2,2′-dimethyl-[1,1′-biphenyl]-3-yl)thiazole-2-carboxamide]	≤ 100 nM

Further lines, results first:

IC50	SMILES
100 to 500 nM	Cc1c(NC(=O)c2ncc(CNCCO)o2)cccc1-c1ccccc1 [Example 3, 5-{[(2-hydroxyethyl)amino]methyl}-N-(2-methylbiphenyl-3-yl)-1,3-oxazole-2-carboxamide]
≤ 100 nM	Cc1c(NC(=O)c2ncc(CNCCO)s2)cccc1-c1ccccc1 [Example 2, 5-{[(2-hydroxyethyl)amino]methyl}-N-(2-methylbiphenyl-3-yl)-1,3-thiazole-2-carboxamide]
≤ 100 nM	Cc1c(NC(=O)c2ncc(CN3CCCC[C@H]3C(=O)O)s2)cccc1-c1ccccc1 [Example 1, (2S)-1-[(2-{[(2-methylbiphenyl-3-yl)amino]carbonyl}-1,3-thiazol-5-yl)methyl]piperidine-2-carboxylic acid]
≤ 100 nM	Cc1nc(C(=O)Nc2cccc(-c3ccccc3)c2C)sc1CNCCO [Example 9, 5-{[(2-hydroxyethyl)amino]methyl}-4-methyl-N-(2-methylbiphenyl-3-yl)-1,3-thiazole-2-carboxamide]
≤ 100 nM	Cc1c(NC(=O)c2ncc(CNCCO)n2C)cccc1-c1ccccc1 [Example 5, 5-{[(2-hydroxyethyl)amino]methyl}-1-methyl-N-(2-methylbiphenyl-3-yl)-1H-imidazole-2-carboxamide]
≤ 100 nM	Cc1c(NC(=O)c2nc(Cl)c(CNCCO)s2)cccc1-c1ccccc1 [Example 8, 4-chloro-5-{[(2-hydroxyethyl)amino]methyl}-N-(2-methylbiphenyl-3-yl)-1,3-thiazole-2-carboxamide]
≤ 100 nM	Cc1c(NC(=O)c2cc(CNCCO)n(C)n2)cccc1-c1ccccc1 [Example 7, 5-{[(2-hydroxyethyl)amino]methyl}-1-methyl-N-(2-methylbiphenyl-3-yl)-1H-pyrazole-3-carboxamide]
≤ 100 nM	Cn1nc(C(=O)Nc2cccc(-c3ccccc3F)c2C#N)cc1CNCCO [Example 11, N-(2-cyano-2′-fluorobiphenyl-3-yl)-5-{[(2-hydroxyethyl)amino]methyl}-1-methyl-1H-pyrazole-3-carboxamide]
